We go through one substance from patent US20060217340A1, “Methods and products for treating hypertension by modulation of TRPC3 channel activity” (University of Vermont and State Agricultural College, priority 2005, published 2006).

The data set has as its system TRPC3. As to the kind of experiment: Western analysis of TRPC3 protein expression in arteries. Type of data set: cell-based, rat. The method, then: Western Analysis. Arterial segments were homogenized in lysis buffer (5 minutes, 4° C.) containing (in mM): 40 CAPS, 1 DL-Dithiothreitol (DTT), 10 EDTA, 15 MgCl2, 115 NaCl, 1 NaOrthovanadate, 1 NaF, 2.5 Urea, and 0.25% deoxychlorate, 10% glycerol, 1% NP-40, 0.2% SDS, and 1:50 mammalian protease inhibitor cocktail (Sigma, St. Louis, Mo., USA). Equal amounts of sample protein were separated on a 10% polyacrylamide gel and transferred to a nitrocellulose membrane. The membranes were exposed to a TRPC3 or TRPC6 polyclonal antibody (anti-rabbit 1:200 dilution, Alomone Labs, Jerusalem, Israel) and a […] (GAPDH) monoclonal antibody (anti-mouse, 1:1000 dilution, Chemicon Labs, Temecula, Calif., USA). Alexa-Fluor 680® goat anti-rabbit (Molecular Probes, Eugene, Oreg., USA) and IRDyeTM800 anti-mouse (Rockland Immunochemicals, Gilbertsville, Pa., USA) were used to fluorescently label the TRPC3 and GAPDH antibodies respectively. The density of signals specific for the TRPC3 and GAPDH bands in a given lane on a membrane were measured after scanning the membrane with an Odyssey® infared imaging system (Li-COR Biosciences, Lincoln, Nebr., USA). Quantified amounts were normalized to a total protein amount lane on the polyacrylamide gel.
Oligodeoxynucleotide Sequences and Reverse Permeabilization. TRPC6 sense and antisense oligodeoxynucleotides (ODN's) were designed as previously described (Welsh et al 2002 Circ Res 90, 248-250) and were as follows: sense, 5′-[…]-3′ (SEQ ID: 3) and 5′-GCACACGCAGCCTCTTCAC-3′ (SEQ ID: 4) antisense, 5′-[…]-3′ (SEQ ID: 5) and 5′-[…]-3′ (SEQ ID: 6). TRPC3 sense and antisense ODN's were designed based on the rat TRPC3 gene (Ohki et al 2000 J Biol Chem 275: 39055-39060) and are as follows: sense, 5′-[…]-3′ (SEQ ID: 7) and 5′-[…]-3′ (SEQ ID: 8); anti-sense, 5′-[…]-3′ (SEQ ID: 9) and 5′-[…]-3′ (SEQ ID: 10). The last five bases on the 5′ and 3′ end were phosphorothioated in order to limit ODN degradation. […]

Turning to “5′-GAGAACCATGAACTGGAATA-3′ (SEQ ID: 9) and 5′-ACGACCAACACGACCAGACA-3′ (SEQ ID: 10) (phosphorothioate ends, further chemistry not given here) [TRPC3 antisense, antisense ODNs based on the rat TRPC3 gene; last five bases on the 5′ and 3′ end phosphorothioated]”, the “TRPC3 expression reduced (Western blots of arterial lysates)” value (TRPC3 antisense compared with sense treated arteries) is on record as roughly 60%. Also, the “TRPC3 to GAPDH ratio less in antisense compared to sense treated samples” value (after 3 days of organ culture, n=4 each) amounted to 42.5±11.4%.
